In patent US20170029388A1, “Treatment of Neurodegenerative Diseases with Asparagine Endopeptidase (AEP) Inhibitors and Compositions Related Thereto” (INTERCONTINENTAL GREAT BRANDS LLC, priority 2014, published 2017):

How the values were obtained:
[1] = test system: cleavage of the amyloid precursor protein (APP); test: OGD in primary cortical neurons, APP cleavage (immunoblot); format: cell-based
Procedure: A. AEP activity, measured in primary neuronal cultures with 5 μM Cbz-Ala-Ala-Asn-AMC (x-axis denotes neurons were treated with 0.1 μM or 1.0 μM specified compound). B. Caspase activity, measured in primary neuronal cultures with 5 μM Ac-Asp-Glu-Val-Asp-AMC. C. Cathepsin activity, measured in primary neuronal cultures with 5 μM D-Val-Leu-Lys-AMC. D. Inhibition of APP cleavage. Lysates of primary cortical neurons pre-incubated with compounds for 30 min, underwent OGD for 4 hrs, were reperfused for 18 hrs (normoxia neurons remained at normoxic conditions). E. APP can be cleaved in a dose-dependent manner. Lysates of primary cortical neurons pre-incubated with compounds for 30 min, underwent OGD for 4 hrs, were reperfused for 18 hrs (normoxia neurons remained at normoxic conditions).
Depriving cells of oxygen and glucose is a cellular model that is employed to trigger acidosis in cultured cells. The efficacy of the compounds in a cellular model of oxygen-glucose deprivation (OGD) was determined in an effort to mimic the effects of stroke in primary cultured neurons. As a result of depriving neurons of oxygen and glucose-containing medium, AEP activity was doubled (FIG. 7A, ‘DMSO-Norm’ compared to ‘DMSO-OGD’), while Caspase-3 and Cathepsin activities remained relatively unchanged. […] Cleavage of APP is observed in response to only DMSO treatment (FIG. 7D, lane 2), and it appears that upon the treatment of 1 μM of compounds 10, 11, and 12, and just 0.1 μM of compounds 31, 38 and 64, the cleavage was blocked, presumably due to AEP inhibition.
Compounds were pre-incubated with primary culture neurons, DIV13, for 30 min. The medium was exchanged for glucose-free DMEM and neurons were de-gased and incubated at 37° C., 95% N2/5% CO2 for 4 hrs with compounds. The medium was exchanged for DMEM and supplemented with compounds, then neurons were reperfused for 18 hrs under normoxic conditions. The neuronal lysates were prepared for AEP, Caspase-3 and Cathepsin assays. Moreover, immunoblotting analysis was conducted with the neuronal lysates using anti-APP, anti-AEP antibodies.

[2] = biological target: T1, AEP in human B lymphoblastoid Pala cells (Homo sapiens, UniProt Q99538); test: IC50 assays in intact Pala cells; format: cell-based; conditions: 2 hr incubation, residual AEP activity in lysate
T1 construct: human B lymphoblastoid pala cells, which are rich in endogenous AEP; endogenous in cells; host or cells: Pala cells (human B lymphoblastoid)
Procedure: The cells were incubated with inhibitors for 2 hrs then cells washed, harvested and lysed and the residual enzymatic activity was determined. Lysate was normalized by Bradford assay and the experiment was performed in triplicate and the mean results and SEM were plotted.
In an attempt to assess the activity of the compounds in intact cells, the compounds were incubated with human B lymphoblastoid pala cells, which are rich in endogenous AEP and have been used for inhibiting AEP in cellular assay.
Human B Lymphoblastoid Pala cells, which express high concentrations of AEP, were cultured in RPMI-1640, supplemented with 10% FBS, 2 mM L-Glutamine, 100 units/mL Penicillin, 100 μg/mL Streptomycin. Various concentrations of each compound were incubated with the Pala cells for 2 hr at 37° C. Cells were collected, washed twice with PBS and lysed in Lysis Buffer (20 mM Citric Acid, 60 mM Disodium Hydrogen Orthophosphate, 1 mM EDTA, 0.1% CHAPS, pH 5.8). The protein concentrations were normalized by Bradford assay and lysates were assayed with 5 μ,M Cbz-Ala-Ala-Asn-AMC. […] Data were analyzed with GraFit version 5.0.11 software package.

AEP = biological target: T2, AEP (Homo sapiens, UniProt Q99538); test: DTT reversibility assay; format: biochemical; conditions: 5x IC50 of compound, 10 mM DTT or L-cysteine
T2 construct: tested with purified active AEP, IC50 values for the top 8 candidates were found; purchased Sino Biological
T2 sequence (Q99538 18-323 limits assumed): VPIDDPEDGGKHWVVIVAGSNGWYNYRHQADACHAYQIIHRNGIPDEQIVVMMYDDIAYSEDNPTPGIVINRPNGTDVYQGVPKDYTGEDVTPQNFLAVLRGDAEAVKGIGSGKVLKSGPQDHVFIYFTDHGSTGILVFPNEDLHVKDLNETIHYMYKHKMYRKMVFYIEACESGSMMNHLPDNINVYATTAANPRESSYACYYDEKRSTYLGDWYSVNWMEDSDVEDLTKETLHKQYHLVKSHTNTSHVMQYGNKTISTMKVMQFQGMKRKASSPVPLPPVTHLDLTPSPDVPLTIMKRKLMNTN
Procedure: AEP was reacted with specified inhibitor, after 15 min 10 mM DTT or L-cysteine was added to the reaction and the fluorescent signal was read for an additional 15 min. At the end of the second 15 min incubation, the percentage of product formed in the presence of each compound was determined in comparison to the DMSO control reaction.
Although it is not intended that embodiments of this disclosure be limited by any particular mechanism, to gain additional insight into the mechanism utilized by the inhibitors for abrogation of AEP activity, their reversibility in the presence of free thiols was determined. The addition of a strong reducing agent, such as DTT, or a weaker reducing agent, L-cysteine, to an inhibited reaction can be used to out-compete the inhibitory agent and restore catalytic activity to an enzyme with an active-site thiol residue. Here, a similar approach was used by adding a reducing agent, either DTT or L-cysteine, to a reaction, in which AEP had been incubated with a specified inhibitor, in an attempt to reverse the effects of the inhibitor. […] For compounds BB1 and 38, this increase in enzymatic activity may be due to the reduction of a disulfide linkage between the inhibitor and the enzyme, since these compounds contain thiols. Compound 10 contains a thiocyanate and may undergo nucleophilic attack by the enzyme's active-site thiolate to form a thioimidate enzyme-inhibitor complex. Under acidic conditions, this complex is reducible by either a strong reducing agent, such as DTT, or the weaker L-cysteine.
Simultaneously, 10 mM (final concentration) dithiothreitol (DTT) or L-cysteine was added to each reaction and incubated for an additional 15 min. At the end of the second 15 min incubation time, the fluorescence was measured for each sample. The amount of product formed in the presence of DMSO was used to determine the percentage of AEP activity in the presence of each drug.

CYP3A4 = CYP3A4 (Homo sapiens, UniProt P08684); test: CYP inhibition screening, CYP3A4-Midazolam; format: in vitro ADME
CYP2C19 = CYP2C19 (Homo sapiens, UniProt P33261); test: CYP inhibition screening, CYP2C19; format: in vitro ADME
Caco-2 monolayer = Caco-2 monolayer permeability screen; format: in vitro ADME
Procedure: To explore the in vitro ADME profiles of the compounds, additional tests were conducted.

CYP3A = test: CYP inhibition screening, CYP3A-Testosterone; format: in vitro ADME
CYP2D6 = CYP2D6 (Homo sapiens, UniProt P10635); test: CYP inhibition screening, CYP2D6; format: in vitro ADME
[3] = Liver microsomal stability, human; conditions: human liver microsomes
[4] = Liver microsomal stability, mouse; conditions: mouse liver microsomes
CYP2C9 = CYP2C9 (Homo sapiens, UniProt P11712); test: CYP inhibition screening, CYP2C9; format: in vitro ADME
CYP1A2 = biological target: T3, CYP1A2 (Homo sapiens, UniProt P05177); test: CYP inhibition screening, CYP1A2; format: in vitro ADME
T3 sequence (P05177 1-516): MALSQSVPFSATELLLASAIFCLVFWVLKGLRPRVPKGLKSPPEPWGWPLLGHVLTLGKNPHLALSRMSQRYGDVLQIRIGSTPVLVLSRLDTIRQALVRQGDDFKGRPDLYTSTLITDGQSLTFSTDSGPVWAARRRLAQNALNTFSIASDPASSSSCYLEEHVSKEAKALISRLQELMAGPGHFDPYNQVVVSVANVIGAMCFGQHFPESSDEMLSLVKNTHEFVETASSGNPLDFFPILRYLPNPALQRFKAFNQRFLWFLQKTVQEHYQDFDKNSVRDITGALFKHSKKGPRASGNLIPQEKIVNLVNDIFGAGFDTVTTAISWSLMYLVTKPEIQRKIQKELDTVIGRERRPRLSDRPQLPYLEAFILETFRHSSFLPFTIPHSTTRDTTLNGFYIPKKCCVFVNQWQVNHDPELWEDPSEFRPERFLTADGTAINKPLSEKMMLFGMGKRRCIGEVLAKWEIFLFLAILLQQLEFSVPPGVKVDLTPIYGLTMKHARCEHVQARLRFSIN

[5] = PAMPA
Cathepsin-L = Cathepsin-L (Homo sapiens, UniProt P07711); test: Cathepsin-L enzymatic assay (specificity); format: biochemical
Procedure: (§1) Purified recombinant enzyme was incubated with various concentrations of inhibitor in appropriate assay buffers in the presence of increasing concentrations of inhibitor. The formation of fluorescent product was monitored in duplicate reactions and the data was fit to appropriate equations to calculate the IC50 values.
(§2) To identify small-molecule inhibitors of AEP, a high-throughput screen was designed in conjunction with the Emory Chemical Biology Discovery Center. The screen incorporated mouse kidney lysates to assay a 54,384 compound library. […] Additional structural analysis and grouping allowed the compounds to be sorted into 8 distinct backbone families. […] The specificity of the compounds was also determined using four major cysteine proteases (FIG. 2).
Cathepsin-L—100 nM enzyme was pre-incubated with inhibitor in assay buffer (100 mM Sodium Acetate pH 5.5, 1 mM EDTA) for 10 min at 37° C. The reaction was initiated upon addition of 25 μM substrate (D-Val-Leu-Lys-AMC (Bachem)).

Caspase-8 = biological target: T4, Caspase-8 (Homo sapiens, UniProt Q14790); test: Caspase-8 enzymatic assay (specificity); format: biochemical
T4 construct: purchased Millipore
Procedure: as §1, §2
(§3) Caspase-3 and 8 —The enzyme was pre-incubated with inhibitor in assay buffer (100 mM HEPES pH 7.4, 0.1% CHAPS, 10% Sucrose) for 10 min at 37° C. The reaction was initiated upon addition of 25 μM substrate (Ac-Asp-Glu-Val-Asp-AMC (Bachem)).

purified human AEP = biological target: T5, purified human AEP (Homo sapiens, UniProt Q99538); test: AEP enzymatic assay with purified active enzyme (IC50); format: biochemical; conditions: purified recombinant enzyme; read-out: IC50 toward AEP
T5 construct: tested with purified active AEP, IC50 values for the top 8 candidates were found; purchased Sino Biological
T5 sequence (Q99538 18-323 limits assumed): T2 sequence (Q99538 18-323 limits assumed)
Procedure: FIG. 1 illustrates a high-throughput screening scheme. […] The hits were validated further with purified human AEP, and promising compounds were categorized into 8 groups. Compounds from each group were tested and the cytotoxicity and specificity were determined.
as §1, §2
AEP—50 nM enzyme was pre-incubated with inhibitor in assay buffer (50 mM Sodium Citrate pH 5.5, 0.1% CHAPS, 60 mM Na2HPO4, 1 mM EDTA) for 10 min at 37° C. The reaction was initiated upon addition of 10 μM Cbz-Ala-Ala-Asn-AMC (Bachem)).

Cathepsin-S = biological target: T6, Cathepsin-S (Homo sapiens, UniProt P25774); test: Cathepsin-S enzymatic assay (specificity); format: biochemical
T6 construct: purchased Athens Research and Technology
Procedure: as §1, §2
Cathepsin-S—100 nM enzyme was pre-incubated with inhibitor in assay buffer (100 mM NaH2PO4 pH 6.5, 100 mM NaCl) for 10 min at 37° C. The reaction was initiated upon addition of 25 μM substrate (Boc-Val-Leu-Lys-AMC (Bachem)).

Caspase-3 = biological target: T7, Caspase-3 (Homo sapiens, UniProt P42574); test: Caspase-3 enzymatic assay (specificity); format: biochemical
T7 construct: purchased Millipore
Procedure: as §1, §2, §3

CYP2C19, sequence (P33261 whole entry): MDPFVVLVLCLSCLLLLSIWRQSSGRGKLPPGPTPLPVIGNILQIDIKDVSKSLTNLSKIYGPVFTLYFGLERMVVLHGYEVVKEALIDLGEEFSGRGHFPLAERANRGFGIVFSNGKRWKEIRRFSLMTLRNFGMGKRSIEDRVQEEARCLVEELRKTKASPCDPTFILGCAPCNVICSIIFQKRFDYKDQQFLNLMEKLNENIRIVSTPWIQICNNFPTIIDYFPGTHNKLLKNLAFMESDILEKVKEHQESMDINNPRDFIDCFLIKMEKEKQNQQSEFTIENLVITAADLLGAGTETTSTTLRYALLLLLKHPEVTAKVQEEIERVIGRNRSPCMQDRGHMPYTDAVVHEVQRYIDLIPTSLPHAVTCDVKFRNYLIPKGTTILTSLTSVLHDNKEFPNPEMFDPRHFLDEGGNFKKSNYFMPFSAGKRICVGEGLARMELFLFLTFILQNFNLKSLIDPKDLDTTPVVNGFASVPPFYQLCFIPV
CYP2C9, sequence (P11712 whole entry): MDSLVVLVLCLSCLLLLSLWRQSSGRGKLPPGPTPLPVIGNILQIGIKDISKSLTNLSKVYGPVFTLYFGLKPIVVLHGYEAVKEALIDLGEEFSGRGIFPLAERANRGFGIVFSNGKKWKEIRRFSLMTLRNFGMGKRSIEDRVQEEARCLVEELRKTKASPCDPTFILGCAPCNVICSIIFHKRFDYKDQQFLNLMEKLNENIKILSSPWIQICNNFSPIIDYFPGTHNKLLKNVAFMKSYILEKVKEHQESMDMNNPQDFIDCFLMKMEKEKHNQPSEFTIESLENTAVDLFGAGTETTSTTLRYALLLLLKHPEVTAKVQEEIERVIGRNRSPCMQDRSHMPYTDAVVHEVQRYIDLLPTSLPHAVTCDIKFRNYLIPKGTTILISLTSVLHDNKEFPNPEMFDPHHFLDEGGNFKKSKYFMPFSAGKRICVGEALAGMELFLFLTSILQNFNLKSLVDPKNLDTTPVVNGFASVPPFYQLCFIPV
CYP3A4, sequence (P08684 whole entry): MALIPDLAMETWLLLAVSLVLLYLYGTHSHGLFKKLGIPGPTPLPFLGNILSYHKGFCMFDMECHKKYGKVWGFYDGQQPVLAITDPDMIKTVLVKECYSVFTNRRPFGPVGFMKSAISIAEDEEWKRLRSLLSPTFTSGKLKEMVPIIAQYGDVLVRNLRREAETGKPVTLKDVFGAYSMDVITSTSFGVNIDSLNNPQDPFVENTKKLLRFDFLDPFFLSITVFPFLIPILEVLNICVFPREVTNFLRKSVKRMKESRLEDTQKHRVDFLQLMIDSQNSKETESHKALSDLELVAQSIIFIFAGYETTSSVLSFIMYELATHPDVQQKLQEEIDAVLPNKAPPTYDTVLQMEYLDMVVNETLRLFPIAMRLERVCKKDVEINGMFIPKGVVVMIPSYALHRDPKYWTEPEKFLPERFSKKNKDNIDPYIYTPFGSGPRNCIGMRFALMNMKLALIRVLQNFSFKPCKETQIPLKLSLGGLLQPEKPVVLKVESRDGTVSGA
CYP2D6, sequence (P10635 whole entry): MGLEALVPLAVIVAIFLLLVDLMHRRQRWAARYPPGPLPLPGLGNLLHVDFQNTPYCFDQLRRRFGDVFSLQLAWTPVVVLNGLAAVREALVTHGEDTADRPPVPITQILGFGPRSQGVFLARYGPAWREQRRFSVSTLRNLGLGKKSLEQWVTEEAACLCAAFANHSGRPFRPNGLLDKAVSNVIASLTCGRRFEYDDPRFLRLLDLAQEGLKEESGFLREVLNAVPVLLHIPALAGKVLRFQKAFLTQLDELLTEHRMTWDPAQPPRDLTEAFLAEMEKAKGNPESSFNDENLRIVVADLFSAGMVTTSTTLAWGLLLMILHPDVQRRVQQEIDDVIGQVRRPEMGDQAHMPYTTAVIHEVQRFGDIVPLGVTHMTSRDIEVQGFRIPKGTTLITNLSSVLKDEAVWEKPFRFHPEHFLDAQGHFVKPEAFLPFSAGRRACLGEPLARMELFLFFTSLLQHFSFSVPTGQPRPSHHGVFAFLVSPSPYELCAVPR
T6 sequence (P25774 115-331): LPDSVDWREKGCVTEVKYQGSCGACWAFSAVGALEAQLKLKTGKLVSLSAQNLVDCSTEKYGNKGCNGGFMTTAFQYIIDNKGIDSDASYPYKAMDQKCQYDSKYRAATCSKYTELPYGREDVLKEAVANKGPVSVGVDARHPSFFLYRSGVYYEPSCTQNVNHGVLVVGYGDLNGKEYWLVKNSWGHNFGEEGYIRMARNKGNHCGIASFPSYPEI
Cathepsin-L, sequence (P07711 114-333, species assumed): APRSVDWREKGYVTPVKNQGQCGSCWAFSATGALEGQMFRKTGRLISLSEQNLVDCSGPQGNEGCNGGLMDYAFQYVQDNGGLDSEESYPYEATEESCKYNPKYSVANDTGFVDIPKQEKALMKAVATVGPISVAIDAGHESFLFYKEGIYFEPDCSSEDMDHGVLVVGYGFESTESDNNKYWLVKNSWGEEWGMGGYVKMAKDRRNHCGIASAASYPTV
T4 sequence (Q14790 217-374 limits assumed, species assumed): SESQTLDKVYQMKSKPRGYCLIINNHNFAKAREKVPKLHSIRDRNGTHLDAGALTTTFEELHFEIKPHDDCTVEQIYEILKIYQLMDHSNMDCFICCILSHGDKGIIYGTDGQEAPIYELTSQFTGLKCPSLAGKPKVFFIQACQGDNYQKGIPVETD
T4 sequence (Q14790 385-479 limits assumed, species assumed): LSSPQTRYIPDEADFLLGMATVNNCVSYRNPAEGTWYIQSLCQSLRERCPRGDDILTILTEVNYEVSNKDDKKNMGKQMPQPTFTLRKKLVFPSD
T7 sequence (P42574 29-175 limits assumed, species assumed): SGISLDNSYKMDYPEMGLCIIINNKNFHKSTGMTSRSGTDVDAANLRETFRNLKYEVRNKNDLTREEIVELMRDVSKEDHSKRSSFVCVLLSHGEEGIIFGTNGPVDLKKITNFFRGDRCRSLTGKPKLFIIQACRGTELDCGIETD
T7 sequence (P42574 176-277 limits assumed, species assumed): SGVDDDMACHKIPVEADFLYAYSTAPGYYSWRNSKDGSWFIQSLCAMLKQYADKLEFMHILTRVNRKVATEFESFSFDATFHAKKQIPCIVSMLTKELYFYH

Row | Structure (SMILES) | CYP inhibition, CYP3A4-Midazolam (CYP3A4; test concentration 3 μM) [%] | CYP inhibition, CYP3A4-Midazolam (CYP3A4; test concentration 10 μM) [%] | CYP inhibition, CYP2C19 (CYP2C19; test concentration 3 μM) [%] | CYP inhibition, CYP2C19 (CYP2C19; test concentration 10 μM) [%] | A -> B Papp (Caco-2 monolayer; Caco-2) | B -> A Papp (Caco-2 monolayer; Caco-2) | CYP inhibition, CYP3A-Testosterone (CYP3A; test concentration 3 μM) [%] | CYP inhibition, CYP3A-Testosterone (CYP3A; test concentration 10 μM) [%] | cleavage of APP after OGD ([1]; 0.1 μM compound) | CYP inhibition, CYP2D6 (CYP2D6; test concentration 3 μM) [%] | CYP inhibition, CYP2D6 (CYP2D6; test concentration 10 μM) [%] | CYP inhibition, CYP2C9 (CYP2C9; test concentration 3 μM) [%] | CYP inhibition, CYP2C9 (CYP2C9; test concentration 10 μM) [%] | CYP inhibition, CYP1A2 (CYP1A2; test concentration 3 μM) [%] | CYP inhibition, CYP1A2 (CYP1A2; test concentration 10 μM) [%] | also measured
1 | N#CSc1cnc(N)s1 [Compound 10] | – | – | – | – | – | – | – | – | – | – | – | – | – | – | – | dose dependence of APP cleavage after OGD [1]: dose-dependent decrease; cleavage of APP after OGD ([1]; 1 μM compound): blocked; IC50 in intact Pala cells [2]: slightly larger IC50 values; AEP activity after addition of reducing agent (reversibility) (AEP): regained a substantial amount of activity
2 | COc1ccc(N2CCN(C(c3ccc(N(C)C)cc3)c3nnnn3C(C)(C)C)CC2)cc1 (stereo not shown) [Compound 31] | −0.9 | 18.1 | 37.7 | 55.7 | 19.3 10^−6 cm · s^−1 | 17.4 10^−6 cm · s^−1 | 2.5 | 0.7 | blocked | 9.9 | 1.4 | 47.8 | 69.2 | 13.5 | 10.3 | Caco-2 permeability (in words) (Caco-2 monolayer): highly permeable; RE (Caco-2 monolayer; Caco-2): 0.9; Mean Remaining Parent (NADPH-free) [3]: 75%; Mean Remaining Parent (with NADPH) ([3]; 30 min of incubation): 12%; Mean Remaining Parent (NADPH-free) [4]: 86%; Mean Remaining Parent (with NADPH) [4]: 16%; Pe [5]: <LLOQ
3 | CCN(CC)c1ccc(CN2CCc3nc(C)[nH]c(=O)c3C2)c(OC)c1 [Compound 64] | 0.6 | 10.1 | 31.6 | 20.4 | <LLOQ | <LLOQ | 1.5 | −0.1 | blocked | 34.6 | 58.3 | 4.6 | 7.9 | 23.7 | 22.2 | selectivity for AEP over Cathepsin-L (Cathepsin-L): over 40 fold; selectivity for AEP over Caspase-8 (Caspase-8): over 40 fold; IC50 (purified human AEP): 2.37 µM; selectivity for AEP over Cathepsin-S (Cathepsin-S): over 40 fold; selectivity for AEP over Caspase-3 (Caspase-3): about 6 fold
